From patent US12351570B2 (MERCK PATENT GMBH, priority 2018, dated 2025)

System: MDA-MB-231 cells
Assay: Extracellular lactate production inhibition after 4 h, MDA-MB-231
Conditions: Homo sapiens, MDA-MB-231

| Compound | IC50 [nM] |
| --- | --- |
| COc1ccc(S(=O)(=O)Nc2ccc(Cl)cc2C#Cc2ccc(C(=O)N(C)C)nc2)c2ncccc12 [Compound 239, 5-{2-[5-chloro-2-(5-methoxyquinoline-8-sulfonamido)phenyl]ethynyl}-N,N-dimethylpyridine-2-carboxamide] | 1000 to 100000 |
| O=C(NO)c1ccc(C#Cc2ccccc2NS(=O)(=O)c2ccc3ccccc3c2)cc1 [Compound 16, N-hydroxy-4-{2-[2-(naphthalene-2-sulfonamido)phenyl]ethynyl}benzamide] | 1000 to 100000 |
| COc1cccc(S(=O)(=O)Nc2ccc(F)cc2C#Cc2cnc(C(=O)O)c(C)c2)c1 [Compound 322, 5-{2-[5-fluoro-2-(3-methoxybenzene-sulfonamido)phenyl]ethynyl}-3-methylpyridine-2-carboxylic acid] | 1000 to 100000 |
| O=C(O)c1ccc(C#Cc2ccccc2NS(=O)(=O)N2CCc3ccccc3C2)cc1 [Compound 90, 4-(2-{2-[(1,2,3,4-tetrahydroisoquinoline-2-sulfonyl)amino]phenyl}ethynyl)benzoic acid] | 1000 to 100000 |
| COC(=O)c1ccc(C#Cc2ccccc2NS(=O)(=O)c2cnn(-c3ccccc3)c2)cn1 [Compound 136, methyl 5-{2-[2-(1-phenyl-1H-pyrazole-4-sulfonamido)phenyl]ethynyl}pyridine-2-carboxylate] | 1000 to 100000 |
| O=C(O)c1ccc(C#Cc2ccccc2NS(=O)(=O)c2ccc3c(c2)CCO3)cc1 [Compound 3, 4-{2-[2-(2,3-dihydro-1-benzofuran-5-sulfonamido)phenyl]ethynyl}benzoic acid] | 1000 to 100000 |
| O=C(O)c1ccc(C#Cc2ccccc2NS(=O)(=O)c2cccc3ccccc23)cn1 [Compound 70, 5-{2-[2-(naphthalene-1-sulfonamido)phenyl]ethynyl}pyridine-2-carboxylic acid] | 100 to 1000 |

More lines, now with the values ahead:

| IC50 [nM] | Compound |
| --- | --- |
| 100 to 1000 | Cc1cc(C(=O)O)ncc1C#Cc1ccccc1NS(=O)(=O)c1ccc2c(c1)Cc1ccccc1-2 [Compound 119, 5-{2-[2-(9H-fluorene-2-sulfonamido)phenyl]ethynyl}-4-methylpyridine-2-carboxylic acid] |
| 100 to 1000 | COc1cccc(-c2cccc(S(=O)(=O)Nc3ccccc3C#Cc3ccc(C(=O)O)nc3)c2)n1 [Compound 127, 5-(2-{2-[3-(6-methoxypyridin-2-yl)benzenesulfonamido]phenyl}-ethynyl)pyridine-2-carboxylic acid] |
| 10 to 100 | CCOc1ccnc2c(S(=O)(=O)Nc3ccccc3C#Cc3ccc(C(=O)O)nc3)cccc12 [Compound 348, 5-{2-[2-(4-ethoxyquinoline-8-sulfonamido)phenyl]ethynyl}pyridine-2-carboxylic acid] |
| 10 to 100 | Cc1ccc2cccnc2c1S(=O)(=O)Nc1ccc(Cl)cc1C#Cc1cnc(C(=O)O)c2ccccc12 [Compound 234, 4-{2-[5-chloro-2-(7-methylquinoline-8-sulfonamido)phenyl]ethynyl}isoquinoline-1-carboxylic acid] |
| 10 to 100 | COc1ccc(S(=O)(=O)Nc2ccccc2C#Cc2cnc(C(=O)O)c(N)c2)c(C)c1C [Compound 402, 3-amino-5-{2-[2-(4-methoxy-2,3-dimethylbenzenesulfonamido)phenyl]ethynyl}pyridine-2-carboxylic acid] |
| 10 to 100 | Cc1ccc2cccnc2c1S(=O)(=O)Nc1ccccc1C#Cc1cnc(C(=O)O)cc1Cl [Compound 149, 4-chloro-5-{2-[2-(7-methylquinoline-8-sulfonamido)phenyl]ethynyl}pyridine-2-carboxylic acid] |
| 1 to 10 | CCc1ccc2cccnc2c1S(=O)(=O)Nc1ccccc1C#Cc1cnc(C(=O)O)cc1OC [Compound 369, 5-{2-[2-(7-ethylquinoline-8-sulfonamido)phenyl]ethynyl}-4-methoxypyridine-2-carboxylic acid] |
| 10 to 100 | Cc1cc(C#Cc2ccccc2NS(=O)(=O)N2CCC[C@@H]3CCCC[C@H]32)cnc1C(=O)O [Compound 225, 5-[2-(2-{[(4a,8a-trans)-decahydro-quinoline-1-sulfonyl]amino}phenyl)-ethynyl]-3-methylpyridine-2-carboxylic acid] |
